From ChEMBL document CHEMBL2163296 (J Med Chem, 2012)
Active and inactive are the calls of the source. The calls are words filed in the database; no cut-off is given here.

Key:
[1] = target: 5-hydroxytryptamine receptor 6 (Homo sapiens, UniProt P50406)
[2] = target: T1, 5-hydroxytryptamine receptor 2C (Homo sapiens, UniProt P28335)
T1 sequence (P28335 whole entry): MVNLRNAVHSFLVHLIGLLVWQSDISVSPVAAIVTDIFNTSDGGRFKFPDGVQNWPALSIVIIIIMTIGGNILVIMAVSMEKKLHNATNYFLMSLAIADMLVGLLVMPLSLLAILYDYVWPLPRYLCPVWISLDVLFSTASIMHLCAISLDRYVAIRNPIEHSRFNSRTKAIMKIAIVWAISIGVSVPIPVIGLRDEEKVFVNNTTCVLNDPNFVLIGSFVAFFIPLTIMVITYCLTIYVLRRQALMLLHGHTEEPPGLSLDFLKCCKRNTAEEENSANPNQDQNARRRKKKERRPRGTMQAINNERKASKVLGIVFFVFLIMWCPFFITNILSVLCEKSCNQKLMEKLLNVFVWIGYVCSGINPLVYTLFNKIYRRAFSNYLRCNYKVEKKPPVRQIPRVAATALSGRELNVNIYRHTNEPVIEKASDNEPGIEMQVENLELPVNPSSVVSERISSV

[3] = target: 5-hydroxytryptamine receptor 5A (Homo sapiens, UniProt P47898)
[4] = target: T2, 5-hydroxytryptamine receptor 1F (Homo sapiens) (UniProt P30939); assay: Binding affinity to 5HT1F receptor after 1.5 hrs by scintillation counter
T2 sequence (whole entry): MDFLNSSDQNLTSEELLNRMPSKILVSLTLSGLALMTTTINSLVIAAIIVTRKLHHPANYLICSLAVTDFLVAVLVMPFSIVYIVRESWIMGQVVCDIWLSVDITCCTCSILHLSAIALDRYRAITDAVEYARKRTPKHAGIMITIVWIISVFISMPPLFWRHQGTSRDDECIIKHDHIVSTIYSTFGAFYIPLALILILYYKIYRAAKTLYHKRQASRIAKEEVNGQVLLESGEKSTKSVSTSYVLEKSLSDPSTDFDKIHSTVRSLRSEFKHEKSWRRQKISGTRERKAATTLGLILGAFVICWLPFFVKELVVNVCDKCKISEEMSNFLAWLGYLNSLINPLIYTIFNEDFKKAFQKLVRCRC

[5] = target: 5-hydroxytryptamine receptor 7 (Homo sapiens, UniProt P34969)
Chain of 5-hydroxytryptamine receptor 7 (P34969 whole entry): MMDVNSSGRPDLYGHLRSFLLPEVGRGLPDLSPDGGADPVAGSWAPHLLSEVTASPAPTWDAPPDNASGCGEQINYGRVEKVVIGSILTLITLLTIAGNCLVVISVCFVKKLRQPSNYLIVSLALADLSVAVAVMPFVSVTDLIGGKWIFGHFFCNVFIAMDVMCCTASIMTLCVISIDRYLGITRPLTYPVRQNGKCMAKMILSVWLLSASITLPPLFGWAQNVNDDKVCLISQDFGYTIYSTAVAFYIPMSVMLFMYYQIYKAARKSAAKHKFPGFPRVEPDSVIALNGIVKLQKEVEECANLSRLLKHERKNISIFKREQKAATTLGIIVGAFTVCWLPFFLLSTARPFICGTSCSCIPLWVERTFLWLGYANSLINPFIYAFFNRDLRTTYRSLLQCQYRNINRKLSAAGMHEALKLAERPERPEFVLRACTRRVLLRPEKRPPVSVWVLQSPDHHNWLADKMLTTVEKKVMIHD

Chain of 5-hydroxytryptamine receptor 5A (P47898 whole entry): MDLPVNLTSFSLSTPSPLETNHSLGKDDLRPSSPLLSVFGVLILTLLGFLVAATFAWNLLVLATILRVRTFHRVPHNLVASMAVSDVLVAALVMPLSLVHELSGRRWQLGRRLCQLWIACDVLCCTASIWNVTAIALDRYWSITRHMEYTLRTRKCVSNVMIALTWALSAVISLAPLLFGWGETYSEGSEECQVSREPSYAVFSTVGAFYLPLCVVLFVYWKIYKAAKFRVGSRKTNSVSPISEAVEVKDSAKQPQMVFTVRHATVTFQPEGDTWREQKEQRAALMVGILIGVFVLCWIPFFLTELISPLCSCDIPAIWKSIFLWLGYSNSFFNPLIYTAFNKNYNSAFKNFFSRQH
Chain of 5-hydroxytryptamine receptor 6 (P50406 whole entry): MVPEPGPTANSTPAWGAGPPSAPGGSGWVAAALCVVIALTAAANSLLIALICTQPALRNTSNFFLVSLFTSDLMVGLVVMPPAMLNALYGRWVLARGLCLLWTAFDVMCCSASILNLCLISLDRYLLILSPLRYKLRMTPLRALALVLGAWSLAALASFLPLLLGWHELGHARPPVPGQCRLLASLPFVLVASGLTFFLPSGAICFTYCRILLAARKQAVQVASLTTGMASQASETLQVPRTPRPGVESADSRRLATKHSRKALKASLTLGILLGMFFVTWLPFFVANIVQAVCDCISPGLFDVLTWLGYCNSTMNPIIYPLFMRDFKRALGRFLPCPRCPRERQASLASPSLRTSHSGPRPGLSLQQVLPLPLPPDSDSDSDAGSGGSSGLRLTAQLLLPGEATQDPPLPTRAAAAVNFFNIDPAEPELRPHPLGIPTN

CNC(=O)c1cc(Oc2ccc(NC(=O)Nc3ccc(Cl)c(C(F)(F)F)c3)cc2)ccn1 [SORAFENIB]
Ki [1]: 6.21 µM | Ki [2]: 0.417 µM | Ki [3]: 3.3 µM | Activity [4]: inactive | Ki [5]: 7.07 µM
